Data set [1] deals with leukaemia cell model. The following applies: cytotoxicity; cited from earlier work.
Data set [2] is described as follows: Determination of the maximum tolerated dose (MTD). The following applies: mouse, in vivo, ip; B6D2F1/Jico mice, single intraperitoneal administration, survival over 14 days, doses 2.5 to 160 mg/kg; read-out: DMT (mg/kg) (Maximum Tolerated Doses). The method, then: 2—Determination of the Maximum Tolerated Dose (MTD)
The evaluation of the maximum tolerated dose was carried out on B6D2F1/Jico mice aged from 4 to 6 weeks. The compounds were administered intraperitoneally at increasing doses ranging from 2.5 to 160 mg/kg. The value of the MTD (expressed in mg/kg) is determined from the observation of the survival rates of the animals over a period of 14 days after a single administration of the product under consideration. The change in the weight of the animals is also monitored over this period. When that the value of the MTD is greater than 160 mg/kg, the value of the MTD is categorized as 160 mg/kg by default.

Data set [3] has as its system 12 human cancer cell lines (U-373MG, U-87MG, SW1088, A549, A-427, HCT-15, LoVo, T-47D, MCF7, J82, T24, PC-3). In words: Cytotoxic activity on tumour cell lines in culture (MTT test). It is filed as cell-based. The following applies: Homo sapiens, mean IC50 calculated from the individual cytotoxic activities on each of the 12 tumour lines, 72 hours incubation. How it is done: 1—Cytotoxic Activity on Tumour Cell Lines in Culture (MTT Test)
The influence of the compounds of formula (I) and of (Ia) on tumour cells was evaluated using the MTT calorimetric test (T. Mosman, J. Immunol. Methods, 1983; 65: 55-63, J. Carmichael et al., Cancer Res. 1987; 47: 936-942).
The principle of the MTT test is based on the mitochondrial reduction by metabolically active alive cells of the yellow-coloured product MTT (3-(4,5-dimethylthiazol-2-yl)-2,5-diphenyltetrazolium bromide) to a blue-coloured product, formazan. The amount of formazan thus obtained is directly proportional to the amount of live cells present in the culture well or wells. This amount of formazan is measured by spectrophotometry.
The cell lines are maintained in monolayer culture at 37° C. in stoppered culture dishes containing 25 MM HEPES MEM (Minimum Essential Medium) base medium. This medium is well suited to the growth of a range of varied diploid or primary mammalian cells. This medium is subsequently supplemented: […]
with an amount of 5% of FCS (Foetal Calf Serum) decomplemented at 56° C. for 1 hour, with 0.6 mg/ml of L-glutamine, with 200 IU/ml of penicillin, with 200 μg/ml of streptomycin, with 0.1 mg/ml of gentamicin.
The 12 human cancer cell lines which were used were obtained from the American Type Culture Collection (ATCC, Rockville, Md., USA). These 12 cell lines are:
U-373MG (ATCC code: HTB-17) and U-87MG (ATCC code: HTB-14), which are two glioblastomas, SW1088 (ATCC code: HTB-12) which is an astrocytoma, A549 (ATCC code: CCL-185) and A-427 (ATCC code: HTB-53), which are two non-small-cell lung cancers, HCT-15 (ATCC code: CCL-225) and LoVo (ATCC code: CCL-229), which are two colorectal cancers, T-47D (ATCC code: HTB-133) and MCF7 (ATCC code: HTB-22), which are two breast cancers, J82 (ATCC code: HTB-1) and T24 (ATCC code: […]), which are two bladder cancers, PC-3 (ATCC code: CRL-1435), which is a prostate cancer.
Experimentally: 100 μl of a cell suspension comprising 20 000 to 50 000 (depending on the cell type used) cells/ml of culture medium are inoculated in flat-bottomed 96-well multi-well plates and are incubated at 37° C. under an atmosphere comprising 5% of CO2 and 70% humidity. After incubating for 24 hours, the culture medium is replaced with 100 μl of fresh medium comprising either the various test compounds at concentrations varying from 10^−5 to 10^−10 M of the solvent used to dissolve the -test products (control condition). After incubating for 72 hours under the above conditions, the culture medium is replaced with 100 μl of a yellowish solution of MTT dissolved, in a proportion of 1 mg/ml, in RPMI 1640. The microplates are reincubated for 3 hours at 37° C. and then centrifuged for 10 minutes at 400 g. The yellowish MTT solution is removed and the blue formazan crystals formed at the cellular level are dissolved in 100 μl of DMSO. The microplates are subsequently agitated for 5 minutes. The intensity of the resulting blue coloration, and thus of the conversion of the yellow MTT product into blue formazan by the cells which are still alive at the end of the experiment, is quantified by spectrophotometry using a device of DYNATECH IMOASSAY SYSTEM type at wavelengths of 570 nm and 630 nm corresponding respectively to the maximum absorption wavelengths of formazan and to the background noise. Software built into the spectrophotometer calculates the mean optical density values and the standard deviation (Std. Dev.) and standard error of the mean (SEM) values.
The inhibitory activity on the cell growth of the compounds of formula (I) and (Ia) on the various tumour cell lines was measured in comparison with that of the natural product.

Consider 2-bromoleptoclinidone, for which the ED50 in data set [1] was 0.4 µg/mL. Turning to `COc1ccnc2c1C(=O)c1nccc3ccnc-2c13` [CRL 8363, 8-Methoxy-7H-pyrido[4,3,2-de][1,10]phenanthroline-7-one], the MTD at 14 days in data set [2] worked out at 10 mg/kg. Further, the IC50 – broadly, the concentration needed to halve the response being measured – in data set [3] was 500 nM.

Turning to `COc1ccnc2c1-c1nccc3ccnc(c13)C2=O` [CRL 8364, 11-methoxy-7H-pyrido[4,3,2-de][1,7]phenanthroline-7-one], in data set [2], the MTD at 14 days worked out at 5 mg/kg. Moreover, in data set [3], the IC50 is 270 nM. The like results for `CN(C)c1ccnc2c1-c1nccc3ccnc(c13)C2=O` [CRL 8367, 11-(Dimethylamino)-7H-pyrido[4,3,2-de][1,7]phenanthroline-7-one] were, in that order, 10 mg/kg and 1650 nM. The like results for `O=C1c2nccc(O)c2-c2nccc3ccnc1c23` [CRL 8388, 11-Hydroxy-7H-pyrido[4,3,2-de][1,7]phenanthroline-7-one] were, in that order, 10 mg/kg and 6200 nM. Regarding `O=C1c2c(Cl)ccnc2-c2nccc3ccnc1c23` [CRL 8396, 8-Chloro-7H-pyrido[4,3,2-de][1,10]phenanthroline-7-one], the MTD at 14 days in data set [2] worked out at 20 mg/kg. Also, the half-maximal inhibitory concentration (IC50) in data set [3] was 600 nM. As for `COc1cnc2c3c(nccc13)-c1ncccc1C2=O` [CRL 8400, 4-Methoxy-7H-pyrido[4,3,2-de][1,10]phenanthroline-7-one], the MTD at 14 days in data set [2] is over 160 mg/kg. The IC50 in data set [3] is 380 nM.

Consider `COc1cnc2c3c(nccc13)-c1cccnc1C2=O` [CRL 8401, 4-Methoxy-7H-pyrido[4,3,2-de][1,7]phenanthroline-7-one], for which the MTD at 14 days in data set [2] was over 160 mg/kg. Besides, the IC50 in data set [3] was 53 nM. Take `COc1ccnc2c1-c1nccc3c(OC)cnc(c13)C2=O` [CRL 8440, 4,11-Dimethoxy-7H-pyrido[4,3,2-de][1,7]phenanthroline-7-one]: the MTD at 14 days in data set [2] stood at 20 mg/kg. The IC50 in data set [3] was 10 nM. On to `COc1cnc2c3c(nccc13)-c1c(N(C)C)ccnc1C2=O` [CRL 8441, 4-Methoxy-11-dimethylamino-7H-pyrido[4,3,2-de][1,7]phenanthroline-7-one], for which the MTD at 14 days in data set [2] is over 160 mg/kg. The IC50 in data set [3] was 5000 nM. As to `COc1ccc2c(n1)C(=O)c1ncc(OC)c3ccnc-2c13` [CRL 8479, 4,9-Dimethoxy-7H-pyrido[4,3,2-de][1,7]phenanthroline-7-one], the melting point (usually the temperature, or range, at which the solid turns liquid) was over 260 °C. For the compound `O=C1c2ncccc2-c2nccc3c(Cl)cnc1c23` [CRL 8480, 4-Chloro-7H-pyrido[4,3,2-de][1,7]phenanthroline-7-one], the melting point is over 260 °C. As to `CN(C)c1cnc2c3c(nccc13)-c1cccnc1C2=O` [CRL 8481, 4-Dimethylamino-7H-pyrido[4,3,2-de][1,7]phenanthroline-7-one], the melting point was over 260 °C.

Turning to `CCOC(=O)c1cnc2c(c1)-c1nccc3ccnc(c13)C2=O` [CRL 8482, 10-Ethoxycarbonyl-7H-pyrido[4,3,2-de][1,7]phenanthroline-7-one], the melting point was found to be 246 °C. Same read-out and setting: the value for `O=C1c2nc(O)ccc2-c2nccc3ccnc1c23` [CRL 8483, 9-Hydroxy-7H-pyrido[4,3,2-de][1,7]phenanthroline-7-one] was over 260 °C. In turn, `COc1ccc2c(n1)C(=O)c1nccc3ccnc-2c13` [CRL 8484, 9-Methoxy-7H-pyrido[4,3,2-de][1,7]phenanthroline-7-one] displayed a melting point of over 260 °C. In the case of `COc1cc(OC)c2c(n1)C(=O)c1nccc3ccnc-2c13` [CRL 8485, 9,11-Dimethoxy-7H-pyrido[4,3,2-de][1,7]phenanthroline-7-one], the melting point is over 260 °C. In turn, `CN(C)c1cc(Cl)nc2c1-c1nccc3ccnc(c13)C2=O` [CRL 8486, 9-Chloro-11-dimethylamino-7H-pyrido[4,3,2-de][1,7]phenanthroline-7-one] returned a melting point of 246 °C. The compound `I.I.O=C1c2ncccc2-c2nccc3c(O)cnc1c23` [CRL 8487, 4-Hydroxy-7H-pyrido[4,3,2-de][1,7]phenanthroline-7-one dihydroiodide] registered a melting point of over 260 °C.
